Reference: ChEMBL document CHEMBL5233248, “Resveratrol - A comprehensive review of recent advances in anticancer drug design and development” (Eur J Med Chem, 2020)
Values joined by “and” are separate entries in the source; they are usually repeats but may differ in a detail not shown here. Equal values may be shown once.

Experiments:
[1] = system: MCF7; assay: Anticancer activity against human MCF7 cells assessed as cell growth inhibition incubated for 48 hrs by MTS assay; format: functional, cell-based; details: MCF7, 48 h
[2] = in vitro; details: human, CCD-1059Sk cells and MCF7 cells
Description: Selectivity index, ratio of IC50 for cytotoxicity against CCD-1059Sk cells to IC50 for antiproliferative activity against MCF7 cells

[3] = Cytotoxicity activity against human CCD-1059Sk cells assessed as cell growth inhibition incubated for 48 hrs by MTS assay; format: toxicity, cell-based
[4] = system: HepG2; assay: Anticancer activity against human HepG2 cells assessed as cell growth inhibition incubated for 24 hrs by MTT assay; format: functional, cell-based; details: HepG2, 24 h
[5] = system: SK-BR-3; assay: Anticancer activity against human SK-BR-3 cells assessed as cell growth inhibition incubated for 24 hrs by MTT assay; format: functional, cell-based; details: SK-BR-3, 24 h
[6] = system: HCT-116; assay: Anticancer activity against human HCT-116 cells assessed as cell growth inhibition; format: functional, cell-based
[7] = system: Ishikawa; assay: cells; details: Homo sapiens
Description: Anti-tumor activity against human ishikawa cells assessed as anti-estrogenic potential

[8] = biological target: T1, Aromatase (Homo sapiens, UniProt P11511)
T1 sequence (P11511 whole entry): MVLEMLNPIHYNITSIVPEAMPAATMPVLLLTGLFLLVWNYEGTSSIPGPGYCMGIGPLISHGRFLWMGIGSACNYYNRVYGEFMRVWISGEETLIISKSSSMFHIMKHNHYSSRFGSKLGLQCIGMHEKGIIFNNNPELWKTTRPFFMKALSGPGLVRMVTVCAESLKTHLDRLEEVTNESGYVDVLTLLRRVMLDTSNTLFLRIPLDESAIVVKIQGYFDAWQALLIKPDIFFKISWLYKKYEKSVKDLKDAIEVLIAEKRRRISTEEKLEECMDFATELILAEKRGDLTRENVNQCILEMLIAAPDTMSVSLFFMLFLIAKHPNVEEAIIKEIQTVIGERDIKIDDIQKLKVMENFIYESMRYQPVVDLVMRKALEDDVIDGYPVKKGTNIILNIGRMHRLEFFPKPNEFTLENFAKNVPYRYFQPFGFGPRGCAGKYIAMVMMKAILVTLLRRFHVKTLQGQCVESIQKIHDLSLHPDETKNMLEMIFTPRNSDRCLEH
Description: Inhibition of human Aromatase

[9] = system: HT-29; assay: Anticancer activity against human HT-29 cells assessed as cell growth inhibition incubated for 24 hrs by MTT assay; format: functional, cell-based
[10] = biological target: CYP1A (Homo sapiens, UniProt P04798+P05177); assay: Inhibtion of CYP1A (unknown origin); format: ADME, protein assay
[11] = system: HEK293; assay: Anticancer activity against human HEK293 cells assessed as cell growth inhibition incubated for 3 days by MTT assay; format: functional, cell-based; details: HEK293, 72 h
[12] = system: MCF7; assay: Anticancer activity against human MCF7 cells assessed as cell growth inhibition incubated for 3 days by MTT assay; format: functional, cell-based; details: MCF7, 72 h
[13] = system: HT-29; assay: Anticancer activity against human HT-29 cells assessed as cell growth inhibition incubated for 3 days by MTT assay; format: functional, cell-based; details: HT-29, 72 h
[14] = Cytotoxicity against mouse NIH3T3 cells assessed as cell growth inhibition by CyQuant assay; format: toxicity, cell-based
[15] = system: MCF7; assay: Anticancer activity against human MCF7 cells assessed as cell growth inhibition by CyQuant assay; format: functional, cell-based
[16] = system: U-251; assay: Anticancer activity against human U-251MG cells assessed as cell growth inhibition by CyQuant assay; format: functional, cell-based
[17] = system: PANC-1; assay: Anticancer activity against human PANC-1 cells assessed as cell growth inhibition by CyQuant assay; format: functional, cell-based
[18] = system: MDA-MB-231; assay: Anticancer activity against human MDA-MB-231 cells assessed as cell growth inhibition by CyQuant assay; format: functional, cell-based
[19] = Anticancer activity against Lung adenocarcinoma cell line assessed as cell growth inhibition measured after 72 hrs by MTT assay; format: functional, cell-based; details: Lung adenocarcinoma cell line, 72 h
[20] = system: HeLa; assay: Anticancer activity against human HeLa cells assessed as cell growth inhibition measured after 72 hrs by MTT assay; format: functional, cell-based
[21] = system: A549; assay: Anticancer activity against human A549 cells assessed as cell growth inhibition measured after 72 hrs by MTT assay; format: functional, cell-based
[22] = system: HepG2; assay: Anticancer activity against human HepG2 cells assessed as cell growth inhibition incubated for 3 days by MTT assay; format: functional, cell-based; details: HepG2, 72 h
[23] = system: PANC-1; assay: Anticancer activity against human PANC-1 cells assessed as cell growth inhibition incubated for 48 hrs by SRB assay; format: functional; details: Homo sapiens, PANC-1, 48 h
[24] = system: B16-F10; assay: Anti cancer activity against mouse B16-F10 cells assessed as cell growth inhibition incubated for 40 hrs by Almar Blue stained fluorescence-based assay relative to control; format: functional
[25] = system: B16-F10; assay: Anti cancer activity against mouse B16-F10 cells assessed as cell growth inhibition incubated for 40 hrs by Almar Blue stained fluorescence-based assay; format: functional; details: B16-F10, 40 h
[26] = system: MDA-MB-231; assay: Anticancer activity against human MDA-MB-231 cells assessed as reduction in cell viability measured after 48 hrs at 150 uM by MTT assay relative to control; format: functional
[27] = system: HCT-116; assay: Anticancer activity against human HCT-116 cells assessed as cell growth inhibition incubated for 5 days by SRB assay; format: functional, cell-based; details: HCT-116, 120 h
[28] = Anticancer activity against human AZ-AHR cells assessed as cell growth inhibition incubate for 24 hrs by MTT assay; format: functional, cell-based
[29] = system: ASPC1; assay: Anticancer activity against human ASPC1 cells assessed as cell growth inhibition incubated for 72 hrs by MTT assay; format: functional, cell-based; details: ASPC1, 72 h
[30] = system: BXPC-3; assay: Anticancer activity against human BXPC-3 cells assessed as cell growth inhibition incubated for 72 hrs by MTT assay; format: functional, cell-based; details: BXPC-3, 72 h
[31] = system: Capan-2; assay: Anticancer activity against human Capan-2 cells assessed as cell growth inhibition incubated for 72 hrs by MTT assay; format: functional, cell-based; details: Capan-2, 72 h
[32] = Homo sapiens, HeLa, 72 h, read-out: IC50

For COc1cc(/C=C/C(=O)N/N=C/c2ccc(O)c(OC)c2)ccc1O, the IC50 [1] was 129 µM, the selectivity ratio [2] was 1.73 and the IC50 at 48 h [3] was 74.6 µM.
In the case of COc1ccc(/C=C/c2cc(OC)cc(OC)c2)cc1 [TRISMETHOXYRESVERATROL], the IC50 [4] is reported as > 100 µM, the IC50 [5] is reported as 112 µM and the IC50 [6] is reported as 1.1 µM. The IC50 [7] was 12.6 µM, the IC50 [8] was 13.6 µM and the IC50 ([9]; Homo sapiens, HT-29, 24 h) was 14 µM. It also gave an IC50 [10] of 0.003 µM.
With CCCCCCCC(=O)OC[C@H]1O[C@@H](Oc2cc(O)cc(/C=C/c3ccc(O)cc3)c2)[C@H](O)[C@@H](O)[C@@H]1O the IC50 [11] was > 100 µM, the IC50 [12] was 52 µM and the IC50 [13] was 39 µM.
With COC(=O)c1cc(/C=C/c2cc(O)cc(O)c2)ccc1O the IC50 [4] was 18.9 µM, the IC50 [5] was 11.3 µM and the IC50 ([9]; ht-29) was 44.3 µM and 18.9 µM.
For COc1cc(/C=C/c2ccc(OC(C)=O)cc2)cc(OC)c1, the IC50 [14] was > 20 µM, the IC50 [15] was 10.8 µM and the IC50 [16] was 6.7 µM. For the same molecule, the IC50 [17] was 18.1 µM and the IC50 [18] was 18.5 µM.
For Oc1ccc(/C=C/c2cc(O)cc(OCc3ccccc3)c2)cc1, the IC50 [19] was 7.96 µM, the IC50 [20, 32] was 1.41 µM and the IC50 ([21]; Homo sapiens, A549, 72 h) was 11.8 µM. The IC50 [8] was 2.7 µM and the IC50 [10] was 0.14 µM.
With CCOc1cc(/C=C/c2ccc(O)c(O)c2)cc(OCC)c1 the IC50 [22] was 67.2 µM.
Molecule COc1ccc(-c2nnc(SCC(=O)Nc3ccc(/C=C/c4cc(OC)cc(OC)c4)cc3)o2)cc1 has a GI50 [23] of 0.064 µM.
For COc1ccc(/C=C\c2cc(OC)c(OC)c(OC)c2)cc1, the “inhibition (INH)” value [24] was 80% and the IC50 [25] was 1 µM.
CCCC(=O)Oc1ccc(/C=C/c2cc(O)cc(O)c2)cc1 showed an Activity [26] of 14.14%.
In the case of COc1ccc(/C=C/c2ccc(OC)c(OC)c2)cc1, the IC50 [25] is reported as 1 µM.
With O=S(=O)(Oc1ccc(/C=C/c2cc(O)cc(OS(=O)(=O)c3ccccc3)c2)cc1)c1ccccc1 the IC50 [19] was 5.55 µM, the IC50 [20, 32] was 6.48 µM and the IC50 ([21]; Homo sapiens, A549, 72 h) was 4.9 µM.
COc1cc(/C=C/c2ccc(OC(=O)CSc3nnc(-c4cc(OC)c(OC)c(OC)c4)o3)cc2)cc(OC)c1 showed a GI50 [23] of 0.064 µM.
Work on Oc1ccccc1/C=N/c1ccccc1O yielded an IC50 [27] of 0.6 µM.
For COc1cc(/C=C/c2ccc(NC(=O)CSc3nnc(-c4ccc(C)cc4)o3)cc2)cc(OC)c1, the GI50 [23] was 0.064 µM.
In the case of OC[C@H]1O[C@@H](Oc2cc(/C=C/c3ccc(O)cc3)cc(O[C@@H]3O[C@H](CO)[C@@H](O)[C@H](O)[C@H]3O)c2)[C@H](O)[C@@H](O)[C@@H]1O, the IC50 [11] is reported as > 100 µM, the IC50 [12] is reported as 72 µM and the IC50 [13] is reported as 24 µM.
COc1cc(/C=N/NC(=O)/C=C/c2ccc(O)c(OC)c2)cc(OC)c1 gave an IC50 [1] of 43 µM, a selectivity ratio [2] of 6.81 and an IC50 at 48 h [3] of 130 µM.
For O=S(=O)(O)Oc1cc(O)cc(/C=C/c2ccc(O)cc2)c1, the IC50 [11] was > 100 µM, the IC50 [12] was 17 µM and the IC50 [13] was 115 µM.
COc1ccc(/C=C\c2cc(OC)c(OC)c(OC)c2)c(OC)c1 gave an IC50 [25] of 1 µM.
With COc1cc(/C=C/c2ccc(NC(=O)CSc3nnc(-c4c(F)cccc4F)o3)cc2)cc(OC)c1 the GI50 [23] was 0.064 µM.
Molecule COc1cc(/C=C/c2ccc(NC(=O)CSc3nnc(-c4ccc(F)cc4)o3)cc2)cc(OC)c1 has a GI50 [23] of 0.064 µM.
Oc1ccc(/C=C\c2cc(O)cc(O)c2)cc1 [CIS-RESVERATROL] gave an IC50 [28] of 25.1 µM and an IC50 [6] of 25.1 µM.
For CC(=O)Oc1ccc(/C=C/c2cc(OC(C)=O)cc(OC(C)=O)c2)cc1 [TRIACETYLRESVERATROL], the IC50 [19] was 3.4 µM, the IC50 [20, 32] was 3.4 µM and the IC50 ([20]; time 72 hrs) was 20.14 µM. For the same molecule, the IC50 ([21]; a549) was 3.4 µM and 9.43 µM.
With COc1ccc(-c2nnc(SCC(=O)Oc3ccc(/C=C/c4cc(OC)cc(OC)c4)cc3)o2)cc1 the GI50 [23] was 0.064 µM.
Work on Nc1ccc(/C=C/c2ccc(O)cc2)cc1 yielded an IC50 [29] of 3.23 µM, an IC50 [30] of 22.5 µM and an IC50 [31] of 3.03 µM.
